In publication PMC6544261, “A novel thermostable and halophilic thioredoxin reductase from the Red Sea Atlantis II hot brine pool” (PLoS ONE, 2019):

Biological target: T1, ATII-TrxR (Cupriavidus basilensis, UniProt A0A643FQQ5)
T1 construct: codon-optimised synthetic gene in pET-28a(+), His-tagged, E. coli BL21(DE3), HisTrap; dimer
T1 sequence (A0A643FQQ5 1-552): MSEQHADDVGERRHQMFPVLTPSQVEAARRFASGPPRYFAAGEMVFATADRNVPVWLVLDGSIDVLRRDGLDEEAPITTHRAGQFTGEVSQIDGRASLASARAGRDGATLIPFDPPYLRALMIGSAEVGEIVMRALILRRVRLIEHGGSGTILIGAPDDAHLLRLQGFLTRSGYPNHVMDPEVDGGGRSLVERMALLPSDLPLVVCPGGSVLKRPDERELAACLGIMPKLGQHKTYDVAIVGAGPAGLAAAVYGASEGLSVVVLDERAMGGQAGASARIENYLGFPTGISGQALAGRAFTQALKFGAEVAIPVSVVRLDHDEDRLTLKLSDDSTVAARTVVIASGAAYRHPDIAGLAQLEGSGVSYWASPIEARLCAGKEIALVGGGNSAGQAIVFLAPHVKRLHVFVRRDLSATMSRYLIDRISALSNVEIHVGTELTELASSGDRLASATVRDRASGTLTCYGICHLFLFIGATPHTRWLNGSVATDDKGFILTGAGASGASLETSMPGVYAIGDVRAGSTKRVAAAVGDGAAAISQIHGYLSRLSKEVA
Assay: flavin absorbance at […] nm, co-elution of […] and […] nm peaks
Assay type: binding
Conditions: cofactor bound to enzyme as purified

Question: How did the “mol FAD/mol native enzyme” value turn out when `Cc1cc2nc3c(=O)[nH]c(=O)nc-3n(C[C@H](O)[C@H](O)[C@H](O)COP(=O)(O)OP(=O)(O)OC[C@H]3O[C@@H](n4cnc5c(N)ncnc54)[C@H](O)[C@@H]3O)c2cc1C` [FAD] was run?
Answer: The binding of ATII-TrxR protein to the cofactor FAD was confirmed
